Experimental data as given in patent US7713994B2 (Wyeth LLC, priority 2005, dated 2010).
pIC50: −log10 of the molar value. Where two headings read alike, the source gives them in different places.

Legend:
cyclin D1/cdk 4 enzyme = target: T1, cyclin D1/cdk 4 enzyme (Homo sapiens, UniProt P11802); test: CDK4 ELISA kinase assay (phospho-Rb ser 795 detection); type: biochemical
T1 construct: made in house; host or cells: Sf9 insect cells, recombinant baculovirus
Procedure, shortened: (§1)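 Screening was done at 10 ug/ml compound. Each partially purified cyclin/CDK complex, produced in baculovirus-infected Sf9 cells, phosphorylated a coated GST-Rb C-terminal fragment with 200 μM ATP, and Ser795 phosphorylation was quantified by HRP-ELISA at 450 nm.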

LoVo = test: Cytotoxicity assay (SRB), LoVo; type: cell-based; conditions: Homo sapiens, LoVo, 72 h, read-out: In Vitro Cellular Activity IC50 LOVO
Procedure, shortened: (§2)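 Percentage survival is derived from SRB absorbance (540 nm) versus untreated cells. Exposures were 3 days, except 6 days for BT474, at 37 °C and 7% CO2.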

cyclin B/CDK1 enzyme = target: T2, cyclin B/CDK1 enzyme (Homo sapiens, UniProt P06493); test: CDK1 ELISA kinase assay (phospho-Rb ser 795 detection); type: biochemical
T2 construct: purchased New England BioLabs; host or cells: Sf9 insect cells, recombinant baculovirus
Procedure, shortened: as §1

HCT-116 = test: Cytotoxicity assay (SRB), HCT-116; type: cell-based; conditions: Homo sapiens, HCT-116, 72 h, read-out: In Vitro Cellular Activity IC50 HCT116
Procedure, shortened: as §2

cyclin E/CDK2 enzyme = target: T3, cyclin E/CDK2 enzyme (Homo sapiens, UniProt P24941); test: CDK2 ELISA kinase assay (phospho-Rb ser 795 detection); type: biochemical
T3 construct: made in house; host or cells: Sf9 insect cells, recombinant baculovirus
Procedure, shortened: as §1

BT474 = test: Cytotoxicity assay (SRB), BT474; type: cell-based; conditions: Homo sapiens, BT-474, 144 h, read-out: In Vitro Cellular Activity IC50 BT474
Procedure, shortened: as §2

MCF-7 = test: Cytotoxicity assay (SRB), MCF-7; type: cell-based; conditions: Homo sapiens, MCF7, 72 h, read-out: In Vitro Cellular Activity IC50 MCF-7
Procedure, shortened: as §2

[1] = In Vitro Enzyme Assays, 200 μM ATP, read-out: CDK4 IC50
[2] = In Vitro Enzyme Assays, read-out: CDK1 IC50
[3] = In Vitro Enzyme Assays, read-out: CDK2 IC50
[4] = In Vitro Enzyme Assay, cyclin D1/cdk 4, read-out: CDK4 IC50
[5] = In Vitro Enzyme Assay, cyclin B/CDK1, read-out: CDK1 IC50
[6] = In Vitro Enzyme Assay, cyclin E/CDK2, read-out: CDK2 IC50

T1 sequence (P11802 whole entry, species assumed): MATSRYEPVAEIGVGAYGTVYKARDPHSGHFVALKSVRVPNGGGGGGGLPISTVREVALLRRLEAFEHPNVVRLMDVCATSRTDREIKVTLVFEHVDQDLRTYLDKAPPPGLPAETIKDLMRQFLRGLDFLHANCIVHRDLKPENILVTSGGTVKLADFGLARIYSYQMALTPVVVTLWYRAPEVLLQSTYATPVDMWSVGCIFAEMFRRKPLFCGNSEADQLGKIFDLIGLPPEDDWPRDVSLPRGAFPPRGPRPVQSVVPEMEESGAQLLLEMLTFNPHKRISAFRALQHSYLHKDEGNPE
T1 sequence (P24385 whole entry partner, species assumed): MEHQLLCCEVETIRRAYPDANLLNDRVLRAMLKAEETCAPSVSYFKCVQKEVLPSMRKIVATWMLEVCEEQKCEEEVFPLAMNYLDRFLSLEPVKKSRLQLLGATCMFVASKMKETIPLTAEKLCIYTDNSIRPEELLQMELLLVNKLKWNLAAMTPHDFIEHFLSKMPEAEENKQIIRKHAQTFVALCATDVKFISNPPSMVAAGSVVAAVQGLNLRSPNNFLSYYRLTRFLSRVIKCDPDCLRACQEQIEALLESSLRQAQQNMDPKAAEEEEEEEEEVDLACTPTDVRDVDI
T2 sequence (P06493 whole entry): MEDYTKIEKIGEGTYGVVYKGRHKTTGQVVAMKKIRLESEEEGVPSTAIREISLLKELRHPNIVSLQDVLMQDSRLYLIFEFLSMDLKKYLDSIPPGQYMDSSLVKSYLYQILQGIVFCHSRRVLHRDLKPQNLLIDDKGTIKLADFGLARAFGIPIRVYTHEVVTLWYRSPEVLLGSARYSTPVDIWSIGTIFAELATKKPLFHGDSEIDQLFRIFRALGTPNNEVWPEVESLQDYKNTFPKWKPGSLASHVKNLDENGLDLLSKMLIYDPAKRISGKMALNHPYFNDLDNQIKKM
T2 sequence (P14635 whole entry partner): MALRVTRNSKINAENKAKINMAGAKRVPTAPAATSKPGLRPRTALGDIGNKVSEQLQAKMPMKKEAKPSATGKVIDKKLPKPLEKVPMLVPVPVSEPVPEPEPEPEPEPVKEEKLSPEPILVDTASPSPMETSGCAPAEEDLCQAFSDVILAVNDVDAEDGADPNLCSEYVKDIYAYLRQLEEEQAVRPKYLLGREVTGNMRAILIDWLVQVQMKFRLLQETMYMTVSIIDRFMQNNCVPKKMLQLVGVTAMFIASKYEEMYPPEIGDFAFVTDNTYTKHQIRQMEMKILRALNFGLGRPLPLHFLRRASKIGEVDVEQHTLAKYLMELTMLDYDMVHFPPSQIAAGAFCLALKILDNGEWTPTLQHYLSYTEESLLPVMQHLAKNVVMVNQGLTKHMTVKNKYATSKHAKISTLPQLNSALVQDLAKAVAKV

| melting point | pIC50 (cyclin D1/cdk 4 enzyme; [1]) | pIC50 (cyclin B/CDK1 enzyme; [2]) | pIC50 (cyclin E/CDK2 enzyme; [3]) | pIC50 (cyclin D1/cdk 4 enzyme; [4]) | pIC50 (cyclin B/CDK1 enzyme; [5]) | pIC50 (cyclin E/CDK2 enzyme; [6]) | SMILES | pIC50 (LoVo; LoVo cells, 3 days, SRB) | pIC50 (HCT-116; HCT116 cells, 3 days, SRB) | pIC50 (BT474; BT474 cells, 6 days, SRB) | pIC50 (MCF-7; MCF-7 cells, 3 days, SRB) | pIC50 (LoVo) | pIC50 (HCT-116) | pIC50 (BT474) | pIC50 (MCF-7) |
| --- | --- | --- | --- | --- | --- | --- | --- | --- | --- | --- | --- | --- | --- | --- | --- |
| 200 to 201 °C | 7.05 | 4.50 | 4.30 |  |  |  | O=C1NC(=O)c2ccc(-c3ccsc3)cc2/C1=C/Nc1ccc(N2CCC(N3CCCC3)CC2)c(F)c1 [Example 406, (4Z)-4-({[3-Fluoro-4-(4-pyrrolidin-1-ylpiperidin-1-yl)phenyl]amino}methylene)-6-thien-3-ylisoquinoline-1,3(2H,4H)-dione] | 5.57 | 5.59 | 5.41 | 5.47 |  |  |  |  |
| 214 to 215 °C | 5.80 | < 4.30 | < 4.30 |  |  |  | O=C1NC(=O)c2ccc(Br)cc2/C1=C/Nc1ccc(N2CCC(N3CCCC3)CC2)nc1 [Example 407, (4Z)-6-Bromo-4-({[6-(4-pyrrolidin-1-ylpiperidin-1-yl)pyridin-3-yl]amino}methylene)isoquinoline-1,3(2H,4H)-dione] | 5.07 | 5.42 | 4.99 | 5.01 |  |  |  |  |
| 134 to 135 °C | 6.54 | < 4.30 | < 4.30 |  |  |  | CN(C)C1CCN(Cc2ccc(N/C=C3\C(=O)NC(=O)c4ccc(I)cc43)cc2)C1 (stereo not shown) [Example 422, (4Z)-4-{[(4-{[3-(Dimethylamino)pyrrolidin-1-yl]methyl}phenyl)amino]methylene}-6-iodoisoquinoline-1,3(2H,4H)-dione] | 5.42 | 5.70 | 5.43 | 5.25 |  |  |  |  |
| 130 to 131 °C | 5.85 | < 4.30 | < 4.30 |  |  |  | CN(C)C[C@@H]1CCCN1Cc1ccc(N/C=C2\C(=O)NC(=O)c3ccc(I)cc32)cc1 [Example 423] | 5.35 | 5.42 | 5.27 | 5.37 |  |  |  |  |
| 139 to 140 °C | 6.44 | 4.35 | 4.43 |  |  |  | CN(C)CCCN1CCC(c2ccc(N/C=C3\C(=O)NC(=O)c4ccc(I)cc43)cc2)CC1 [Example 425, (4Z)-4-{[(4-{1-[3-(Dimethylamino)propyl]piperidin-4-yl}phenyl)amino]methylene}-6-iodoisoquinoline-1,3(2H,4H)-dione] | 5.92 | 6.22 | 5.82 | 5.59 |  |  |  |  |
| 205 to 206 °C | 6.07 | < 4.30 | < 4.30 |  |  |  | O=C1NC(=O)c2ccc(I)cc2/C1=C/Nc1ccc(CN2CCCCC2CO)cc1 (stereo not shown) [Example 439, (4Z)-4-{[(4-{[2-(Hydroxymethyl)piperidin-1-yl]methyl}phenyl)amino]methylene}-6-iodoisoquinoline-1,3(2H,4H)-dione] | 5.60 | 5.46 | 6.42 | 6.12 |  |  |  |  |
| 255 to 256 °C | 6.46 | 4.56 | 4.71 |  |  |  | O=C1NC(=O)c2ccc(I)cc2/C1=C/Nc1ccc(CN2CCC(O)CC2)cc1 [Example 440, (4Z)-4-[({4-[(4-Hydroxypiperidin-1-yl)methyl]phenyl}amino)methylene]-6-iodoisoquinoline-1,3(2H,4H)-dione] | 5.40 | 5.49 | 5.80 | 5.80 |  |  |  |  |
| 191 to 192 °C | 5.48 | 4.80 | 4.60 |  |  |  | CN1CCN(c2ccc(N/C=C3\C(=O)NC(=O)c4ccc(Br)cc43)nc2)CC1 [Example 442, (4Z)-6-Bromo-4-({[5-(4-methylpiperazin-1-yl)pyridin-2-yl]amino}methylene)isoquinoline-1,3(2H,4H)-dione] | 5.39 | 5.96 | 5.43 | 5.62 |  |  |  |  |
| 183 to 184 °C | 7.40 | 5.00 | < 4.30 |  |  |  | CN1CCN(c2ccc(N/C=C3\C(=O)NC(=O)c4ccc(-c5coc(C=O)c5)cc43)nc2)CC1 [Example 448, 4-[(4Z)-4-({[5-(4-Methylpiperazin-1-yl)pyridin-2-yl]amino}methylene)-1,3-dioxo-1,2,3,4-tetrahydroisoquinolin-6-yl]-2-furaldehyde] | 5.39 | 5.62 | 5.18 | 5.30 |  |  |  |  |
| 186 to 196 °C (dec.) |  |  |  | 5.43 | < 4.30 | < 4.30 | CN1CCCC1c1ccc(N/C=C2\C(=O)NC(=O)c3ccc(-n4cccc4)cc32)nc1 (stereo not shown) [Example 459] | 5.02 | 4.89 | 4.76 | 4.97 |  |  |  |  |
| 174 to 206 °C (dec.) |  |  |  | 4.74 | < 4.30 | < 4.30 | CN1CCCC1c1ccc(N/C=C2\C(=O)NC(=O)c3ccc(I)cc32)nc1 (stereo not shown) [Example 460, (Z)-6-Iodo-4-((5-(1-methylpyrrolidin-2-yl)pyridin-2-ylamino)methylene)isoquinoline-1,3(2H,4H)-dione] | 5.03 | 5.08 | 5.00 | 4.99 |  |  |  |  |
| 159 to 160 °C |  |  |  | 6.68 | < 4.30 | < 4.30 | COC[C@@H]1CCCN1Cc1ccc(N/C=C2\C(=O)NC(=O)c3ccc(-c4ccco4)cc32)cc1 [Example 467, (4Z)-6-(2-Furyl)-4-{[(4-{[(2S)-2-(methoxymethyl)pyrrolidin-1-yl]methyl}phenyl)amino]methylene}isoquinoline-1,3(2H,4H)-dione] | 5.62 | 5.64 | 5.44 | 5.72 |  |  |  |  |
| 230 to 231 °C |  |  |  | 6.77 | < 4.30 | < 4.30 | C[C@@H]1CN(c2ccc(N/C=C3\C(=O)NC(=O)c4ccc(-c5ccoc5)cc43)nc2)C[C@H](C)N1 [Example 468, (4Z)-4-[({5-[(3R,5S)-3,5-Dimethylpiperazin-1-yl]pyridin-2-yl}amino)methylene]-6-(3-furyl)isoquinoline-1,3(2H,4H)-dione] | 5.80 | 5.96 | 5.68 | 5.82 |  |  |  |  |
| 245 to 246 °C |  |  |  | 5.66 | 5.57 | 4.75 | C[C@@H]1CN(c2ccc(N/C=C3\C(=O)NC(=O)c4ccc(Br)cc43)nc2)C[C@H](C)N1 [Example 469, (4Z)-6-Bromo-4-[({5-[(3R,5S)-3,5-dimethylpiperazin-1-yl]pyridin-2-yl}amino)methylene]isoquinoline-1,3(2H,4H)-dione] | 5.92 | 6.10 | 5.66 | 5.54 |  |  |  |  |
| 210 to 218 °C (dec.) |  |  |  | 7.30 | 5.60 | 6.72 | CCC(=O)Nc1cnc(CN/C=C2\C(=O)NC(=O)c3ccc(I)cc32)cc1O [Example 470, N-(4-Hydroxy-6-{[(6-iodo-1,3-dioxo-2,3-dihydro-1H-isoquinolin-4-ylidenemethyl)-amino]-methyl}-pyridin-3-yl)-propionamide] | 4.72 | 4.68 | 5.70 | 4.42 |  |  |  |  |
| 176 to 196 °C (dec.) |  |  |  | 8.15 | < 4.30 | 4.54 | CCCOc1cn(C)c(CN/C=C2\C(=O)NC(=O)c3ccc(I)cc32)cc1=O [Example 471, 6-Iodo-4-{[(1-methyl-4-oxo-5-propoxy-1,4-dihydro-pyridin-2-ylmethyl)-amino]-methylene}-4H-isoquinoline-1,3-dione] | < 4.30 | < 4.30 | 4.66 | < 4.30 |  |  |  |  |

| SMILES | melting point | pIC50 (cyclin D1/cdk 4 enzyme; [1]) | pIC50 (cyclin B/CDK1 enzyme; [2]) | pIC50 (cyclin E/CDK2 enzyme; [3]) | pIC50 (cyclin D1/cdk 4 enzyme; [4]) | pIC50 (cyclin B/CDK1 enzyme; [5]) | pIC50 (cyclin E/CDK2 enzyme; [6]) | pIC50 (LoVo; LoVo cells, 3 days, SRB) | pIC50 (HCT-116; HCT116 cells, 3 days, SRB) | pIC50 (BT474; BT474 cells, 6 days, SRB) | pIC50 (MCF-7; MCF-7 cells, 3 days, SRB) | pIC50 (LoVo) | pIC50 (HCT-116) | pIC50 (BT474) | pIC50 (MCF-7) |
| --- | --- | --- | --- | --- | --- | --- | --- | --- | --- | --- | --- | --- | --- | --- | --- |
| O=C1NC(=O)c2ccc(-c3ccsc3)cc2/C1=C/Nc1ccc(N2CCC(N3CCCC3)CC2)nc1 [Example 408] | 203 to 204 °C | 6.92 | < 4.30 | < 4.30 |  |  |  |  |  |  |  | 5.59 | 5.60 | 5.62 | 5.29 |
